# Experimental data published in ChEMBL document CHEMBL1128268, “Tryptophan-derived NK1 antagonists: conformationally constrained heterocyclic bioisosteres of the ester linkage” (J Med Chem, 1995).
# pIC50: −log10 of the molar value.
# Molecular target: Substance-P receptor (Homo sapiens, UniProt P25103)
# Experiment: Binding affinity at human Tachykinin receptor 1 expressed in CHO cells by [125 I]Trp8-substance P displacement.
# Format: cell-based
# Chain of Substance-P receptor (P25103 whole entry): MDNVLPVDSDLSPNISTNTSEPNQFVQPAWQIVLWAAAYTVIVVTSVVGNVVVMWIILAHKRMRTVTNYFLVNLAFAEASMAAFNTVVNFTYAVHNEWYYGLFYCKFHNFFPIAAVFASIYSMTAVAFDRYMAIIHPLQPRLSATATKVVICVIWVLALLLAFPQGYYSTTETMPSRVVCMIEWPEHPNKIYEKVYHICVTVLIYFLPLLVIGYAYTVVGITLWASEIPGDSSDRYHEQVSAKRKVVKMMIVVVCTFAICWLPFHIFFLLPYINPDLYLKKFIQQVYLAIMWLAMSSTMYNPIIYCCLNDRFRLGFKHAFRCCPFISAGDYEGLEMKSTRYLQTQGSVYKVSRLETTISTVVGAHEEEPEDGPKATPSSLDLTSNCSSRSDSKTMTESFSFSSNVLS
row,pIC50,Compound
1,6.57,O=C1NC(Cc2c[nH]c3ccccc23)CN1Cc1cc(C(F)(F)F)cc(C(F)(F)F)c1 (centres undefined)
2,7.51,C=CCC1(Cc2c[nH]c3ccccc23)OC(=O)N(Cc2cc(C(F)(F)F)cc(C(F)(F)F)c2)C1=O (centres undefined)
3,7.96,CC1(Cc2c[nH]c3ccccc23)OC(=O)N(Cc2cc(C(F)(F)F)cc(C(F)(F)F)c2)C1=O (centres undefined)
4,6.82,CN1C(=O)N(Cc2cc(C(F)(F)F)cc(C(F)(F)F)c2)C(=O)C1Cc1c[nH]c2ccccc12 (centres undefined)
5,6.17,Cc1cc(C)cc(CN2C(=O)OC(Cc3c[nH]c4ccccc34)C2=O)c1 (centres undefined)
6,6.56,O=C1OC(Cc2c[nH]c3ccccc23)C(=O)N1Cc1cc(Cl)cc(Cl)c1 (centres undefined)
7,6.66,O=C1C(Cc2c[nH]c3ccccc23)N(C(=O)Nc2ccccc2)C(=O)N1Cc1cc(C(F)(F)F)cc(C(F)(F)F)c1 (centres undefined)
8,5.13,COc1cc(CN2C(=O)OC(Cc3c[nH]c4ccccc34)C2=O)cc(OC)c1 (centres undefined)
9,5.57,O=C1OC(Cc2c[nH]c3ccccc23)C(=O)N1Cc1cccc(C(F)(F)F)c1 (centres undefined)
10,6.40,O=C1NC(Cc2c[nH]c3ccccc23)CN(Cc2cc(C(F)(F)F)cc(C(F)(F)F)c2)C1=O (centres undefined)
11,6.50,O=C1NC(Cc2c[nH]c3ccccc23)C(=O)N1Cc1cc(C(F)(F)F)cc(C(F)(F)F)c1 (centres undefined)
12,6.69,O=C1CC(Cc2c[nH]c3ccccc23)C(=O)N1Cc1cc(C(F)(F)F)cc(C(F)(F)F)c1 (centres undefined)
13,7.20,CNC(=O)N1C(=O)N(Cc2cc(C(F)(F)F)cc(C(F)(F)F)c2)C(=O)C1Cc1c[nH]c2ccccc12 (centres undefined)
14,6.51,O=C1C(Cc2c[nH]c3ccccc23)N(Cc2ccccc2)C(=O)N1Cc1cc(C(F)(F)F)cc(C(F)(F)F)c1 (centres undefined)
15,5.37,O=C1OC(Cc2c[nH]c3ccccc23)C(=O)N1Cc1cc(F)cc(F)c1 (centres undefined)
16,7.66,O=C1OC(Cc2c[nH]c3ccccc23)C(=O)N1Cc1cc(C(F)(F)F)cc(C(F)(F)F)c1 (racemic)
17,7.59,"O=C1OC(Cc2c[nH]c3ccccc23)C(=O)N1Cc1cc(C(F)(F)F)cc(C(F)(F)F)c1 (single isomer, unassigned; (-))"

row,Compound,pIC50
1,O=C1CNC(Cc2c[nH]c3ccccc23)CN1Cc1cc(C(F)(F)F)cc(C(F)(F)F)c1 (centres undefined),6.61
2,FC(F)(F)c1cc(CN2CCNC(Cc3c[nH]c4ccccc34)C2)cc(C(F)(F)F)c1 (centres undefined),6.25
